# What was measured:
# SCPJU (seed) = assay: Assay for herbicidal activity, paddy pots: SCPJU; format: in vivo, Scirpus juncoides ROXB; settings: three weeks after application, 0 untreated control, 100 complete kill
# Excerpt: (§1) To evaluate herbicidal activity against the paddy weeds in the paddy rice (ORYSA: Oryza sativa L.), the herbicidal activity of the compounds of the invention was compared to that of the compound No.109 (compound A) disclosed in U.S. Pat. […] The paddy weeds tested were ECHOR (Echinochloa crus-galli var. oryzicola), SCPJU (Scirpus juncoides ROXB), MOOVA (Monochoria vaginalis […] (Cyperus serotinus ROTTB), and SAGPY (Sagittaria pygmaea MTQ). The vessels employed were plastic pots having an area of 140 cm^2 and filled with a sandy loam soil containing 1.2% organic matter (pH 6).
# SAGPY (tuber) = assay: Assay for herbicidal activity, paddy pots: SAGPY; format: in vivo, Sagittaria pygmaea MTQ; settings: three weeks after application, 0 untreated control, 100 complete kill
# Excerpt: as §1
# ORYSA (3-leaf stage) = assay: Assay for herbicidal activity, paddy pots: phytotoxicity to transplanted rice seedlings; format: in vivo, Oryza sativa L.
# Excerpt: as §1
# CYPSE (tuber) = assay: Assay for herbicidal activity, paddy pots: CYPSE; format: in vivo, Cyperus serotinus ROTTB; settings: three weeks after application, 0 untreated control, 100 complete kill
# Excerpt: as §1
# MOOVA (seed) = assay: Assay for herbicidal activity, paddy pots: MOOVA; format: in vivo, Monochoria vaginalis PRESL; settings: three weeks after application, 0 untreated control, 100 complete kill
# Excerpt: as §1
# ECHOR (seed) = assay: Assay for herbicidal activity, paddy pots: ECHOR; format: in vivo, Echinochloa crus-galli var. oryzicola; settings: three weeks after application, 0 untreated control, 100 complete kill
# Excerpt: as §1
# ORYSA (seed) = assay: Assay for herbicidal activity, paddy pots: phytotoxicity to seeded (pregerminated) rice; format: in vivo, Oryza sativa L.; settings: three weeks after application, 0 untreated control, 100 complete kill
# Excerpt: as §1
Compound,"SCPJU (seed) herbicidal activity, visual percentage grading (SCPJU (seed); 0.016 kg/ha) [%]","SCPJU (seed) herbicidal activity, visual percentage grading (SCPJU (seed); 0.063 kg/ha) [%]","SCPJU (seed) herbicidal activity, visual percentage grading (SCPJU (seed); 0.250 kg/ha) [%]","SCPJU (seed) herbicidal activity, visual percentage grading (SCPJU (seed); 1.000 kg/ha) [%]","SCPJU (seed) herbicidal activity, visual percentage grading (SCPJU (seed); 4.000 kg/ha) [%]","SAGPY (tuber) herbicidal activity, visual percentage grading (SAGPY (tuber); 0.016 kg/ha) [%]","SAGPY (tuber) herbicidal activity, visual percentage grading (SAGPY (tuber); 0.063 kg/ha) [%]","SAGPY (tuber) herbicidal activity, visual percentage grading (SAGPY (tuber); 0.250 kg/ha) [%]","SAGPY (tuber) herbicidal activity, visual percentage grading (SAGPY (tuber); 1.000 kg/ha) [%]","SAGPY (tuber) herbicidal activity, visual percentage grading (SAGPY (tuber); 4.000 kg/ha) [%]","CYPSE (tuber) herbicidal activity, visual percentage grading (CYPSE (tuber); 0.016 kg/ha) [%]","CYPSE (tuber) herbicidal activity, visual percentage grading (CYPSE (tuber); 0.063 kg/ha) [%]","CYPSE (tuber) herbicidal activity, visual percentage grading (CYPSE (tuber); 0.250 kg/ha) [%]","CYPSE (tuber) herbicidal activity, visual percentage grading (CYPSE (tuber); 1.000 kg/ha) [%]","CYPSE (tuber) herbicidal activity, visual percentage grading (CYPSE (tuber); 4.000 kg/ha) [%]","MOOVA (seed) herbicidal activity, visual percentage grading (MOOVA (seed); 0.016 kg/ha) [%]","MOOVA (seed) herbicidal activity, visual percentage grading (MOOVA (seed); 0.063 kg/ha) [%]","MOOVA (seed) herbicidal activity, visual percentage grading (MOOVA (seed); 0.250 kg/ha) [%]","MOOVA (seed) herbicidal activity, visual percentage grading (MOOVA (seed); 1.000 kg/ha) [%]","MOOVA (seed) herbicidal activity, visual percentage grading (MOOVA (seed); 4.000 kg/ha) [%]",other results
"CC1(COCc2c(F)cccc2F)CC(c2ccc(Br)s2)=NO1 (stereo not shown) [EXAMPLE 11, 5-(2,6-difluorobenzyl)oxymethyl-5-methyl-3-(2-bromothiophene-5-yl)-1,2-isoxazoline]",0,0,20,30,80,0,0,0,30,50,0,0,40,100,100,30,50,90,100,100,"ORYSA (3-leaf stage) phytotoxicity, visual percentage grading (ORYSA (3-leaf stage); in vivo): 0%; ECHOR (seed) herbicidal activity, visual percentage grading (ECHOR (seed); 0.016 kg/ha): 20%; ECHOR (seed) herbicidal activity, visual percentage grading (ECHOR (seed); 0.063 kg/ha): 70%; ECHOR (seed) herbicidal activity, visual percentage grading (ECHOR (seed); 0.250 kg/ha): 100%; ECHOR (seed) herbicidal activity, visual percentage grading (ECHOR (seed); 1.000 kg/ha): 100%; ECHOR (seed) herbicidal activity, visual percentage grading (ECHOR (seed); 4.000 kg/ha): 100%"
"Cc1ccsc1C1=NOC(C)(COCc2ccccc2F)C1 (stereo not shown) [EXAMPLE 6, 5-(2-fluorobenzyl)oxymethyl-5-methyl-3-(4-methylthiophene-5-yl)-1,2-isoxazoline]",20,80,80,100,100,0,0,0,30,30,100,100,100,100,100,0,70,80,80,100,"ORYSA (seed) phytotoxicity, visual percentage grading (ORYSA (seed); 0.016 kg/ha): 0%; ORYSA (seed) phytotoxicity, visual percentage grading (ORYSA (seed); 0.063 kg/ha): 40%; ORYSA (seed) phytotoxicity, visual percentage grading (ORYSA (seed); 0.250 kg/ha): 100%; ORYSA (seed) phytotoxicity, visual percentage grading (ORYSA (seed); 1.000 kg/ha): 100%; ORYSA (seed) phytotoxicity, visual percentage grading (ORYSA (seed); 4.000 kg/ha): 100%; ORYSA (3-leaf stage) phytotoxicity, visual percentage grading (ORYSA (3-leaf stage); 0.016 kg/ha, three weeks after application, 0 untreated control, 100 complete kill): 0%; ORYSA (3-leaf stage) phytotoxicity, visual percentage grading (ORYSA (3-leaf stage); 0.063 kg/ha, three weeks after application, 0 untreated control, 100 complete kill): 20%; ORYSA (3-leaf stage) phytotoxicity, visual percentage grading (ORYSA (3-leaf stage); 0.250 kg/ha, three weeks after application, 0 untreated control, 100 complete kill): 20%; ORYSA (3-leaf stage) phytotoxicity, visual percentage grading (ORYSA (3-leaf stage); 1.000 kg/ha, three weeks after application, 0 untreated control, 100 complete kill): 30%; ORYSA (3-leaf stage) phytotoxicity, visual percentage grading (ORYSA (3-leaf stage); 4.000 kg/ha, three weeks after application, 0 untreated control, 100 complete kill): 30%; ECHOR (seed) herbicidal activity, visual percentage grading (ECHOR (seed); 0.016 kg/ha): 20%; ECHOR (seed) herbicidal activity, visual percentage grading (ECHOR (seed); 0.063 kg/ha): 100%; ECHOR (seed) herbicidal activity, visual percentage grading (ECHOR (seed); 0.250 kg/ha): 100%; ECHOR (seed) herbicidal activity, visual percentage grading (ECHOR (seed); 1.000 kg/ha): 100%; ECHOR (seed) herbicidal activity, visual percentage grading (ECHOR (seed); 4.000 kg/ha): 100%"

# — US6838416B2, “Herbicidal 5-benzyloxymethyl-1,2-isoxazoline derivatives” (Korea Research Institute of Chemical Technology, priority 2000, dated 2005)
